Tests used:
[1] = biological target: T1, SH (cytoplasmic, soluble hydrogenase) (Cupriavidus necator, UniProt P22317); experiment: H2-dependent NAD+ reduction at […] nm, soluble extract; type: biochemical; conditions: 1 mM NAD+, H2-saturated 50 mM Tris/HCl pH 8.0, anaerobic, 30 °C
T1 construct: gene hoxF; native enzyme in soluble protein fraction of cell extract; hetero-hexamer HoxHYFUI2; with NAD-reducing hydrogenase HoxS subunit beta; NAD-reducing hydrogenase HoxS subunit gamma; NAD-reducing hydrogenase HoxS subunit delta; NAD-reducing hydrogenase subunit HoxI
T1 sequence (P22317 whole entry): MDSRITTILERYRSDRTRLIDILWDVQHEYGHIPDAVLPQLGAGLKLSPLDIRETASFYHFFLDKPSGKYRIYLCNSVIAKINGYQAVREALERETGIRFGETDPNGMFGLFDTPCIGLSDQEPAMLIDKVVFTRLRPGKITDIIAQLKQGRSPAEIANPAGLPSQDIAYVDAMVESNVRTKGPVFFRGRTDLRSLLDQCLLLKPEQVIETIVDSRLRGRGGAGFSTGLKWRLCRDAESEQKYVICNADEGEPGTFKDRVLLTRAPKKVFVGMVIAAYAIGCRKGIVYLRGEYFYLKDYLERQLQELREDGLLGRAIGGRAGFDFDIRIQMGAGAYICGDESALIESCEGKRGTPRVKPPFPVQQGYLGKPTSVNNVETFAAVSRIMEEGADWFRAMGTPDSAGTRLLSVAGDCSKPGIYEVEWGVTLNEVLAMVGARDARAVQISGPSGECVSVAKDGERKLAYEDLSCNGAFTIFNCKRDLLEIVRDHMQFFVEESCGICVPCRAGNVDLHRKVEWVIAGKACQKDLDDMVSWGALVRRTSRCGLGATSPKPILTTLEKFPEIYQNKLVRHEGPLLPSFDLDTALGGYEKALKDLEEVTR
T1 sequence (P22318 2-234 partner): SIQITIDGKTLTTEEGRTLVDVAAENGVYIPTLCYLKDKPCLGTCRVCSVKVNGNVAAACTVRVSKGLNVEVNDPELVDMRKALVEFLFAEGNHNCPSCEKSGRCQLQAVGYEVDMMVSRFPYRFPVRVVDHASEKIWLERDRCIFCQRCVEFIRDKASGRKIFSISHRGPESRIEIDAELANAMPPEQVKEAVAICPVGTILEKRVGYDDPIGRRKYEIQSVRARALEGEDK
T1 sequence (P22319 whole entry partner): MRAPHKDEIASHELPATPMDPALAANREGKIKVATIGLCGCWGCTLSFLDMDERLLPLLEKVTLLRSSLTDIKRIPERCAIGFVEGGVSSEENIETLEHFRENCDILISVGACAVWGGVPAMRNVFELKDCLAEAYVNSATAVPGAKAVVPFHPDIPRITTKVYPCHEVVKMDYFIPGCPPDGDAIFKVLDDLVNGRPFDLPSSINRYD
T1 sequence (P22320 2-464 partner): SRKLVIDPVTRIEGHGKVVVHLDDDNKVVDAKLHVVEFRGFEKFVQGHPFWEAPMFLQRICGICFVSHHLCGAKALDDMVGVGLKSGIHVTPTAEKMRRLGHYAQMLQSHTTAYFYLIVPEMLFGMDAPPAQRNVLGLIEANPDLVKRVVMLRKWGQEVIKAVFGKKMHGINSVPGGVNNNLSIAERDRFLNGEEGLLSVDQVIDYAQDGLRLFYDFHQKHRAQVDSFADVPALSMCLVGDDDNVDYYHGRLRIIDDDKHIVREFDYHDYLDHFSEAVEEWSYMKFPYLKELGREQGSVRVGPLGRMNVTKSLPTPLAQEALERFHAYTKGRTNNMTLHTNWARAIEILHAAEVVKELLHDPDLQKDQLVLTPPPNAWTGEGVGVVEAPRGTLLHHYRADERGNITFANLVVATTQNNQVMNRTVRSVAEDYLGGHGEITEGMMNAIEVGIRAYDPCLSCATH

[2] = biological target: T2, FOF1-ATPase (FOF1-ATP synthase) (Cupriavidus necator, UniProt Q0K5M2); experiment: phosphate release from ATP by membrane vesicles; type: biochemical; conditions: 5 mM ATP, 1 mM MgSO4, 50 mM Tris-HCl pH 7.0, 30 °C; 10 min preincubation; FN-grown cells; overall ATPase activity of vesicles
T2 construct: gene atpE; native complex in membrane vesicles (osmotic lysis), not purified; FOF1 share defined by DCCD sensitivity; with ATP synthase subunit a; ATP synthase subunit b; ATP synthase subunit alpha; ATP synthase subunit beta; ATP synthase gamma chain; ATP synthase subunit delta; ATP synthase epsilon chain

Row | Structure (SMILES) | H2-dependent NAD+ reduction at 365 nm, soluble extract [1] | fold inhibition at 0.2 mM [2]
1 | NC(=O)c1ccc[n+]([C@@H]2O[C@H](COP(=O)(O)OP(=O)(O)OC[C@H]3O[C@@H](n4cnc5c(N)ncnc54)[C@H](O)[C@@H]3O)[C@@H](O)[C@H]2O)c1 [NAD^+] | hydrogen-oxidizing activity of SH was measured in anaerobic cuvettes with NAD^+ | –
2 | C(=NC1CCCCC1)=NC1CCCCC1 [DCCD, N,N′-dicyclohexylcarbodiimide] | – | ~ 2.3 fold

Source: article PMC6859627, “Growth of the facultative chemolithoautotroph Ralstonia eutropha on organic waste materials: growth characteristics, redox regulation and hydrogenase activity” (Microbial Cell Factories, 2019)
